The record followed here is US7851474B2, “Dipiperazinyl ketones and related analogues” (Neurogen Corporation, priority 2005, dated 2010).

Read-outs that look alike come from different tables or passages of the source. Where only a bound is given, the exact number is not on record here.

This assay has as its target T1, chimeric human H3 receptor (Homo sapiens, UniProt Q9Y5N1, E19D).
T1 construct: made in house; host or cells: Sf9 insect cells (baculovirus infection); P2 membrane preparation
Description: Chimeric human H3 receptor GTP binding assay (agonist-stimulated GTP-gamma35S binding, Example 7). Particulars: read-out: Ki. It counts as biochemical. The gist of the method: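 IC50 values come from non-linear regression of dose-response curves of filter-bound GTP-gamma^35S, counted by scintillation. Membranes were from infected Sf9 cells carrying receptor plus G-protein subunits, 35 μg/tube, with 10 μM GDP present.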
(In general: GTPγS is a poorly hydrolysed GTP analogue; its binding reports G protein activation.)

Where [1] appears, read: assay of Example 7, symbol * in column headed Ki of Table II.
The mark [2] stands for this setting: Table II, "*" in Ki, assay of Example 7.
Where [3] appears, read: assay of Example 7, "*" in Ki of Table II.
Setting [4] is: Table II, assay of Example 7, "*" in Ki.
The mark [5] stands for this setting: Table II "Ki", symbol "*": Ki in the assay of Example 7.

T1 sequence (Q9Y5N1 with tags, fused parts or gaps E19D): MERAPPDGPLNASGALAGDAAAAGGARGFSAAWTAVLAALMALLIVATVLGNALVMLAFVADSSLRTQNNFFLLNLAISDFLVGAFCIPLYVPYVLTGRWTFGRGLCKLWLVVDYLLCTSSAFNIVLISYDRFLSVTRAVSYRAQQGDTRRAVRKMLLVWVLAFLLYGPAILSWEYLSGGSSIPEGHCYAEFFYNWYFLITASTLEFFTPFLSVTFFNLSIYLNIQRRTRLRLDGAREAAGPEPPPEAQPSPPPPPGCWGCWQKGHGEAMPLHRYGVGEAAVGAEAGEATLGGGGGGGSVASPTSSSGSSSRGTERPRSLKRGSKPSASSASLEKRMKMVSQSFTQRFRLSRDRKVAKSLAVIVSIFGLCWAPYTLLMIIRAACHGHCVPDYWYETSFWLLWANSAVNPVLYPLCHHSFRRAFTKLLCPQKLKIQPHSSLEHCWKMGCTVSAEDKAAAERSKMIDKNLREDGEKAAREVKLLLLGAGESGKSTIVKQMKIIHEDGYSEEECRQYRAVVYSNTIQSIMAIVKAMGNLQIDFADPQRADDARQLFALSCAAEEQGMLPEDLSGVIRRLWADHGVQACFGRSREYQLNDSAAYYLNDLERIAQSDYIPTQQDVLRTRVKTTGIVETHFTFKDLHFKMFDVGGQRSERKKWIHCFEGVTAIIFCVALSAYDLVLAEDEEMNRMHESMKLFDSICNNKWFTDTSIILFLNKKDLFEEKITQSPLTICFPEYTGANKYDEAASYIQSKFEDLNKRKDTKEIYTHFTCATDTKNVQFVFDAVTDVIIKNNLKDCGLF

Take `Cc1cc(N2CCN(CC(=O)N3CCN(C4CCC4)CC3)CC2)ccc1Cl` [Compound 349, 1-(4-chloro-3-methylphenyl)-4-[2-(4-cyclobutylpiperazin-1-yl)-2-oxoethyl]piperazine]: under setting [1], the Ki was less than 1000 nM.

In the case of `COc1ccc(-c2ccc(N3CCN(CC(=O)N4CCN(C5CCC5)CC4)CC3)cc2)cc1F` [Compound 750, 1-cyclobutyl-4-{[4-(3′-fluoro-4′-methoxybiphenyl-4-yl)piperazin-1-yl]acetyl}piperazine], the Ki under setting [2] is less than 1000 nM.

For the compound `O=C(NC1CCN(CC(=O)N2CCN(C3CCC3)CC2)CC1)C1CC2CCC1C2` (centres unmarked) [Compound 1226, N-{1-[2-(4-cyclobutylpiperazin-1-yl)-2-oxoethyl]piperidin-4-yl}bicyclo[2.2.1]heptane-2-carboxamide], the Ki under setting [3] is less than 1000 nM.

For `O=C(NC1CCCC1)c1cccc(N2CCN(CC(=O)N3CCN(C4CCC4)CC3)CC2)c1` [Compound 1081, 3-{4-[2-(4-cyclobutylpiperazin-1-yl)-2-oxoethyl]piperazin-1-yl}-N-cyclopentylbenzamide], the Ki under setting [4] was less than 1000 nM.

Regarding `O=C(NC1CCN(CC(=O)N2CCN(C3CCC3)CC2)C1)c1ccc2ccccc2c1` (centres unmarked) [Compound 1233, N-{1-[2-(4-cyclobutylpiperazin-1-yl)-2-oxoethyl]pyrrolidin-3-yl}-2-naphthamide], the Ki under setting [3] was less than 1000 nM.

On to `COc1cc(N2CCN(CC(=O)N3CCN(C4CCCC4)CC3)CC2)ccc1Cl` [Compound 346, 1-(4-chloro-3-methoxyphenyl)-4-[2-(4-cyclopentylpiperazin-1-yl)-2-oxoethyl]piperazine], for which, under setting [1], the Ki is less than 1000 nM.

In the case of `COc1ccc(-c2ccc(N3CCN(CC(=O)N4CCN(C5CCC5)CC4)CC3)nn2)c(OC)c1` [Compound 1042, 3-{4-[2-(4-cyclobutylpiperazin-1-yl)-2-oxoethyl]piperazin-1-yl}-6-(2,4-dimethoxyphenyl) pyridazine], the Ki under setting [4] was less than 1000 nM.

Turning to `CC1CCN(C2CCN(CC(=O)N3CCN(C4CCCCC4)CC3)CC2)CC1` [Compound 439, 1′-[2-(4-cyclohexylpiperazin-1-yl)-2-oxoethyl]-4-methyl-1,4′-bipiperidine], the Ki under setting [1] was less than 1000 nM.

Take `O=C(CN1CCN(C(=O)C2CCCO2)CC1)N1CCN(C2CCCCC2)CC1` (centres unmarked) [Compound 826, 1-cyclohexyl-4-{[4-(tetrahydrofuran-2-ylcarbonyl)piperazin-1-yl]acetyl}piperazine]: the inhibitory constant (Ki) under setting [5] was less than 1000 nM.

Regarding `O=C(CN1CCN(c2ccc(-c3cccc(F)c3F)nn2)CC1)N1CCN(C2CCC2)CC1` [Compound 1053, 3-{4-[2-(4-cyclobutylpiperazin-1-yl)-2-oxoethyl]piperazin-1-yl}-6-(2,3-difluorophenyl)pyridazine], the Ki under setting [4] was less than 1000 nM.

For `N#Cc1cccc(-c2ccc(N3CCN(CC(=O)N4CCN(C5CCC5)CC4)CC3)cc2)c1` [Compound 1118, 4′-{1-[2-(4-cyclobutylpiperazin-1-yl)-2-oxoethyl]piperazin-1-yl}biphenyl-3-carbonitrile], the Ki under setting [4] is less than 1000 nM.

With `CC(C)c1ccc(-c2ccc(N3CCN(CC(=O)N4CCN(C5CCC5)CC4)CC3)nn2)cc1` [Compound 1014, 3-{4-[2-(4-cyclobutylpiperazin-1-yl)-2-oxoethyl]piperazin-1-yl}-6-(4-isopropylphenyl) pyridazine], the Ki under setting [4] was less than 1000 nM.

On to `COc1ccc(-c2ccc(N3CCN(CC(=O)N4CCN(C5CCC5)CC4)CC3)nn2)c(C)c1` [Compound 1038, 3-{4-[2-(4-cyclobutylpiperazin-1-yl)-2-oxoethyl]piperazin-1-yl}-6-(4-methoxy-2-methylphenyl)pyridazine], for which the Ki under setting [4] was less than 1000 nM.

Regarding `O=C(CN1CCN(c2ccc(-c3cc(Cl)ccc3Cl)nn2)CC1)N1CCN(C2CCC2)CC1` [Compound 1060, 3-{4-[2-(4-cyclobutylpiperazin-1-yl)-2-oxoethyl]piperazin-1-yl}-6-(2,5-dichlorophenyl)pyridazine], under setting [4], the Ki is less than 1000 nM.

As to `CC(C)(C)CC(=O)NC1CCN(CC(=O)N2CCN(C3CCC3)CC2)CC1` [Compound 1216, N-{1-[2-(4-cyclobutylpiperazin-1-yl)-2-oxoethyl]piperidin-4-yl}-3,3-dimethylbutanamide], the Ki under setting [3] is less than 1000 nM.

`CC(C)CCNC(=O)c1ccc(N2CCN(CC(=O)N3CCN(C4CCC4)CC3)CC2)nc1` [Compound 1179, 6-{4-[2-(4-cyclobutylpiperazin-1-yl)-2-oxoethyl]piperazin-1-yl}-N-(3-methylbutyl)nicotinamide]: the Ki under setting [3] is less than 1000 nM.

Consider `Cc1cccc(-c2ccc(N3CCN(CC(=O)N4CCN(C5CCC5)CC4)CC3)nn2)c1` [Compound 1011, 3-{4-[2-(4-cyclobutylpiperazin-1-yl)-2-oxoethyl]piperazin-1-yl}-6-(3-methylphenyl)pyridazine], for which the Ki under setting [4] was less than 1000 nM.

In the case of `N#Cc1ccc(-c2cccc(N3CCN(CC(=O)N4CCN(C5CCC5)CC4)CC3)c2)cc1` [Compound 1065, 3′-{4-[2-(4-cyclobutylpiperazin-1-yl)-2-oxoethyl]piperazin-1-yl}biphenyl-4-carbonitrile], the Ki under setting [4] is less than 1000 nM.

As for `O=C(CN1CCN(c2ccc(-c3cccc(Cl)c3Cl)cc2)CC1)N1CCN(C2CCC2)CC1` [Compound 665, 1-cyclobutyl-4-{[4-(2′,3′-dichlorobiphenyl-4-yl)piperazin-1-yl]acetyl}piperazine], the Ki under setting [2] was less than 1000 nM.

`CCCCc1ccc(-c2cnc(N3CCN(CC(=O)N4CCN(C5CCC5)CC4)CC3)cn2)cc1` [Compound 901, 2-(4-butylphenyl)-5-{4-[2-(4-cyclobutylpiperazin-1-yl)-2-oxoethyl]piperazin-1-yl}pyrazine]: the Ki under setting [5] is less than 1000 nM.

`COc1ccc(N2CCN(CC(=O)N3CCN(C4CCCCC4)CC3)CC2)cc1` [Compound 823, 1-cyclohexyl-4-{[4-(4-methoxyphenyl)piperazin-1-yl]acetyl}piperazine]: under setting [5], the Ki was less than 1000 nM.

Consider `O=C(CCC1CCCC1)NC1CCN(CC(=O)N2CCN(C3CCC3)CC2)C1` (centres unmarked) [Compound 1250, N-{1-[2-(4-cyclobutylpiperazin-1-yl)-2-oxoethyl]pyrrolidin-3-yl}-3-cyclopentylpropanamide], for which the Ki under setting [3] was less than 1000 nM.

Take `O=C(NCC1CCCCC1)c1cccc(N2CCN(CC(=O)N3CCN(C4CCC4)CC3)CC2)c1` [Compound 1084, 3-{4-[2-(4-cyclobutylpiperazin-1-yl)-2-oxoethyl]piperazin-1-yl}-N-(cyclohexylmethyl) benzamide]: the Ki under setting [4] was less than 1000 nM.

As for `Cc1cccc(C)c1-c1cnc(N2CCN(CC(=O)N3CCN(C4CCC4)CC3)CC2)cn1` [Compound 972, 2-{4-[2-(4-cyclobutylpiperazin-1-yl)-2-oxoethyl]piperazin-1-yl}-5-(2,6-dimethylphenyl)pyrazine], under setting [4], the Ki is less than 1000 nM.

For `CC(=O)c1ccc(-c2ccc(N3CCN(CC(=O)N4CCN(C5CCC5)CC4)CC3)cc2)cc1` [Compound 309, 1-(4′-{4-[2-(4-cyclobutylpiperazin-1-yl)-2-oxoethyl]piperazin-1-yl}biphenyl-4-yl)ethanone], the inhibition constant (Ki) under setting [1] was less than 1000 nM.

On to `O=C1OCc2cc(N3CCN(CC(=O)N4CCN(C5CCCC5)CC4)CC3)ccc21` [Compound 1159, 5-{4-[2-(4-cyclopentylpiperazin-1-yl)-2-oxoethyl]piperazin-1-yl}-2-benzofuran-1(3H)-one], for which the Ki under setting [3] was less than 1000 nM.

For the compound `COc1ccc(-c2cnc(N3CCN(CC(=O)N4CCN(C5CCC5)CC4)CC3)cn2)c(OC)c1` [Compound 954, 2-{4-[2-(4-cyclobutylpiperazin-1-yl)-2-oxoethyl]piperazin-1-yl}-5-(2,4-dimethoxyphenyl) pyrazine], under setting [4], the Ki is less than 1000 nM.

For the compound `O=C(CN1CCN(c2ccc(C(=O)N3CCCCC3)cc2)CC1)N1CCN(C2CCC2)CC1` [Compound 601, 1-cyclobutyl-4-({40[4-(piperidin-1-ylcarbonyl)phenyl]piperazin-1-yl}acetyl)piperazine], the Ki under setting [2] is less than 1000 nM.

Take `CC(C)C(=O)c1ccc(N2CCN(CC(=O)N3CCN(C4CCCC4)CC3)CC2)cc1` [Compound 325, 1-(4-{4-[2-(4-cyclopentylpiperazin-1-yl)-2-oxoethyl]piperazin-1-yl}phenyl)-2-methylpropan-1-one]: under setting [1], the Ki is less than 1000 nM.

Turning to `N#Cc1cccc(-c2cnc(N3CCN(CC(=O)N4CCN(C5CCC5)CC4)CC3)cn2)c1` [Compound 994, 3-(5-{4-[2-(4-cyclobutylpiperazin-1-yl)-2-oxoethyl]piperazin-1-yl}pyrazin-2-yl)benzonitrile], under setting [4], the Ki was less than 1000 nM.

As for `O=C(CN1CCN(c2ccc(-c3cccc(Cl)c3)nn2)CC1)N1CCN(C2CCC2)CC1` [Compound 988, 3-(3-chlorophenyl)-6-{4-[2-(4-cyclobutylpiperazin-1-yl)-2-oxoethyl]piperazin-1-yl}pyridazine], the Ki under setting [4] was less than 1000 nM.

`CC(=O)c1ccc(N2CCN(CC(=O)N3CCN(CC(C)C)CC3)CC2)cc1` [Compound 328, 1-(4-{4-[2-(4-isobutylpiperazin-1-yl)-2-oxoethyl]piperazin-1-yl}phenyl)ethanone]: the Ki under setting [1] was less than 1000 nM.

For the compound `O=C(CN1CCN(c2ccc(-c3cccc(OC(F)(F)F)c3)cc2)CC1)N1CCN(C2CCC2)CC1` [Compound 587, 1-cyclobutyl-4-({4-[3′-(trifluoromethoxy)biphenyl-4-yl]piperazin-1-yl}acetyl)piperazine], the Ki under setting [2] is less than 1000 nM.

Regarding `Cc1ccc(-c2ccc(N3CCN(CC(=O)N4CCN(C5CCC5)CC4)CC3)nn2)cc1C` [Compound 1015, 3-{4-[2-(4-cyclobutylpiperazin-1-yl)-2-oxoethyl]piperazin-1-yl}-6-(3,4-dimethylphenyl) pyridazine], the Ki under setting [4] is less than 1000 nM.

For `O=C1NC2(CCN(CC(=O)N3CCN(C4CCC4)CC3)CC2)c2ncccc21` [Compound 436, 1-[2-(4-cyclobutylpiperazin-1-yl)-2-oxoethyl]spiro[piperidine-4,7′-pyrrolo[3,4-b]pyridin]-5′(6′H)-one], the Ki under setting [1] is less than 1000 nM.

Usually Ki stands for a dissociation constant, usually derived from enzyme kinetics or from competition with a known ligand.
